From ChEMBL document CHEMBL5370694, “Novel Pyrrole Derivatives as Apolipoprotein L-1 Inhibitors for Treating Kidney Diseases and Sepsis” (ACS Med Chem Lett, 2023) come the findings set out here.

For orientation: IC50 means the concentration that gives 50% inhibition. Higher therefore signals a need for much substance.

The nature of assay [1]: Inhibition of APOL1 isoform G2 variant in human U2OS cells incubated for 80 mins by thallium flux based FLIPR assay. The assay is classed as cell-based.
The target of a further assay is T1, Apolipoprotein L1 (Homo sapiens, UniProt O14791).
T1 sequence (O14791 whole entry): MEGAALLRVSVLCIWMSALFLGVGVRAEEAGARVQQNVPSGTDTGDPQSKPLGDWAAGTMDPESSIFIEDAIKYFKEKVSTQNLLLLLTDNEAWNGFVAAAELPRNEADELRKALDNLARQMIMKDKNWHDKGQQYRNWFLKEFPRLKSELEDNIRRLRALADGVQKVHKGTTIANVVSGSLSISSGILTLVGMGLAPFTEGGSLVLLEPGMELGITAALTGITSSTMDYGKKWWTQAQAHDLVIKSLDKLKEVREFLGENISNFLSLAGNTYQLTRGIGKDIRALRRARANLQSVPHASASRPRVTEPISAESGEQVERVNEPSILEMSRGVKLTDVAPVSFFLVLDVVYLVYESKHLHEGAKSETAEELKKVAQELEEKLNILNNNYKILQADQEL
As to the kind of experiment: Inhibition of wild type APOL1 containing G0 in human U2OS cells incubated for 80 mins by thallium flux based FLIPR assay. The format is cell-based.

Structures are written as SMILES.

Consider `O=C(CCc1cc(-c2c(F)cc(F)cc2Cl)[nH]c1-c1ccc(Cl)cc1)N[C@@H]1C(=O)NC[C@H]1O`, for which the IC50 in assay [1] is 0.794 nM; against Apolipoprotein L1 it was 0.501 nM.
The corresponding values for `O=C(CCc1cc(C2(C(F)(F)F)CC2)[nH]c1-c1ccc(C(F)(F)F)cc1)N[C@@H]1C(=O)NC[C@H]1O` are 5.01 nM and 2.51 nM.
The corresponding values for `O=C(CCc1cc(-c2c(F)cc(F)cc2F)[nH]c1-c1ccc(Cl)cc1)N[C@@H]1C(=O)NC[C@H]1O` are 3.98 nM and 3.16 nM.
Taken in the same sequence, the figures for `CC(C)(C)c1cc(CCC(=O)N[C@@H]2C(=O)NC[C@H]2O)c(-c2ccc(C(F)(F)F)cc2)[nH]1` were 5.01 nM and 1.58 nM.
With `O=C(CCc1cc(C2(C(F)(F)F)CC2)[nH]c1-c1ccc(Cl)cc1)N[C@@H]1C(=O)NC[C@H]1O`, the IC50 is 3.98 nM in assay [1] and 2.51 nM against Apolipoprotein L1.
For `O=C(CCc1c(-c2ccc(Cl)cc2)[nH]c(C2(C(F)(F)F)CC2)c1F)N[C@@H]1C(=O)NC[C@H]1O`, the IC50 in assay [1] was 5.01 nM; at Apolipoprotein L1, 2 nM.
